{"source": "patent US20050197350A1", "about": "“Novel quinoline, tetrahydroquinazoline, and pyrimidine derivatives and methods of treatment related to the use thereof” (TAISHO PHARMACEUTICAL CO., LTD., priority 2003, published 2005)", "data": [{"tested_on": "MCH receptors", "assay": "MCH receptor activity class (method not given)", "conditions": "class by percent of control at 10^-7 M or IC50", "values": [{"molecule": "COc1cc(CNC[C@H]2CC[C@@H](Nc3nc4c(c(N(C)C)n3)CCCC4)CC2)cc2c1OCO2", "note": "[compound 1430]", "class": "2 (Class 2: The value of percent of control at 10^−7 M was from 40% to 60% or the value of IC′50 was from 50 nM to 200 nM.)"}, {"molecule": "COc1cc(CNC[C@H]2CC[C@@H](Nc3nc4c(c(N(C)C)n3)CCCC4)CC2)cc(Br)c1OC", "note": "[compound 1431]", "class": "3 (Class 3 The value of percent of control at 10^−7 M was more than 60% or the value of IC50 was more than 200 nM.)"}, {"molecule": "COc1ccc(CNC[C@H]2CC[C@@H](Nc3nc4c(c(N(C)C)n3)CCCC4)CC2)cc1C", "note": "[compound 1432]", "class": "3 (Class 3 The value of percent of control at 10^−7 M was more than 60% or the value of IC50 was more than 200 nM.)"}, {"molecule": "COc1cc(Br)c(CNC[C@H]2CC[C@@H](Nc3nc4c(c(N(C)C)n3)CCCC4)CC2)cc1OC", "note": "[compound 1433]", "class": "3 (Class 3 The value of percent of control at 10^−7 M was more than 60% or the value of IC50 was more than 200 nM.)"}, {"molecule": "Cc1oc(-c2ccccc2)cc1CNC[C@H]1CC[C@@H](Nc2nc3c(c(N(C)C)n2)CCCC3)CC1", "note": "[compound 1434]", "class": "3 (Class 3 The value of percent of control at 10^−7 M was more than 60% or the value of IC50 was more than 200 nM.)"}, {"molecule": "COc1ccc(CNC[C@H]2CC[C@@H](Nc3nc4c(c(N(C)C)n3)CCCC4)CC2)cc1OC", "note": "[compound 1435]", "class": "3 (Class 3 The value of percent of control at 10^−7 M was more than 60% or the value of IC50 was more than 200 nM.)"}, {"molecule": "Cc1cc(CNC[C@H]2CC[C@@H](Nc3nc4c(c(N(C)C)n3)CCCC4)CC2)ccc1O", "note": "[compound 1436]", "class": "2 (Class 2: The value of percent of control at 10^−7 M was from 40% to 60% or the value of IC′50 was from 50 nM to 200 nM.)"}, {"molecule": "COc1cc(C)c(CNC[C@H]2CC[C@@H](Nc3nc4c(c(N(C)C)n3)CCCC4)CC2)cc1C", "note": "[compound 1437]", "class": "2 (Class 2: The value of percent of control at 10^−7 M was from 40% to 60% or the value of IC′50 was from 50 nM to 200 nM.)"}, {"molecule": "COc1cccc(CNC[C@H]2CC[C@@H](Nc3nc4c(c(N(C)C)n3)CCCC4)CC2)c1O", "note": "[compound 1438]", "class": "3 (Class 3 The value of percent of control at 10^−7 M was more than 60% or the value of IC50 was more than 200 nM.)"}, {"molecule": "CN(C)c1nc(N[C@H]2CC[C@@H](CNCc3cc(C(F)(F)F)cc(Cl)c3F)CC2)nc2c1CCCC2", "note": "[compound 1439]", "class": "3 (Class 3 The value of percent of control at 10^−7 M was more than 60% or the value of IC50 was more than 200 nM.)"}, {"molecule": "CN(C)c1nc(N[C@H]2CC[C@@H](CNCc3cc(F)cc(C(F)(F)F)c3)CC2)nc2c1CCCC2", "note": "[compound 1440]", "class": "3 (Class 3 The value of percent of control at 10^−7 M was more than 60% or the value of IC50 was more than 200 nM.)"}, {"molecule": "COc1cc(CNC[C@H]2CC[C@@H](Nc3nc4c(c(N(C)C)n3)CCCC4)CC2)cc(F)c1O", "note": "[compound 1441]", "class": "2 (Class 2: The value of percent of control at 10^−7 M was from 40% to 60% or the value of IC′50 was from 50 nM to 200 nM.)"}, {"molecule": "COc1cc(F)c(CNC[C@H]2CC[C@@H](Nc3nc4c(c(N(C)C)n3)CCCC4)CC2)cc1OC", "note": "[compound 1442]", "class": "3 (Class 3 The value of percent of control at 10^−7 M was more than 60% or the value of IC50 was more than 200 nM.)"}, {"molecule": "CCc1ccccc1CNC[C@H]1CC[C@@H](Nc2nc3c(c(N(C)C)n2)CCCC3)CC1", "note": "[compound 1443]", "class": "3 (Class 3 The value of percent of control at 10^−7 M was more than 60% or the value of IC50 was more than 200 nM.)"}, {"molecule": "CN(C)c1nc(N[C@H]2CC[C@@H](CNCc3ccc(N(C)CCC#N)cc3)CC2)nc2c1CCCC2", "note": "[compound 1444]", "class": "3 (Class 3 The value of percent of control at 10^−7 M was more than 60% or the value of IC50 was more than 200 nM.)"}, {"molecule": "CN(C)c1nc(N[C@H]2CC[C@@H](CNCc3ccc(OCc4ccc(Br)cc4)cc3)CC2)nc2c1CCCC2", "note": "[compound 1445]", "class": "3 (Class 3 The value of percent of control at 10^−7 M was more than 60% or the value of IC50 was more than 200 nM.)"}, {"molecule": "CCOc1c(Br)cc(Br)cc1CNC[C@H]1CC[C@@H](Nc2nc3c(c(N(C)C)n2)CCCC3)CC1", "note": "[compound 1446]", "class": "3 (Class 3 The value of percent of control at 10^−7 M was more than 60% or the value of IC50 was more than 200 nM.)"}, {"molecule": "CN(C)c1cc(N[C@H]2CC[C@@H](NCCc3ccc(Br)cc3)CC2)nc2ccccc12", "note": "[compound 1447]", "class": "3 (Class 3 The value of percent of control at 10^−7 M was more than 60% or the value of IC50 was more than 200 nM.)"}, {"molecule": "CN(C)c1cc(N[C@H]2CC[C@@H](NCCOc3ccccc3Cl)CC2)nc2ccccc12", "note": "[compound 1449]", "class": "3 (Class 3 The value of percent of control at 10^−7 M was more than 60% or the value of IC50 was more than 200 nM.)"}, {"molecule": "Cc1c(C)c(C)c(CNC2CCC(Nc3cc(N(C)C)c4ccccc4n3)CC2)c(C)c1C", "note": "(stereo not shown) [compound 1451]", "class": "3 (Class 3 The value of percent of control at 10^−7 M was more than 60% or the value of IC50 was more than 200 nM.)"}, {"molecule": "CCOc1cccc(CN[C@H]2CC[C@@H](Nc3cc(N(C)C)c4ccccc4n3)CC2)c1", "note": "[compound 1452]", "class": "3 (Class 3 The value of percent of control at 10^−7 M was more than 60% or the value of IC50 was more than 200 nM.)"}, {"molecule": "CN(C)c1cc(N[C@H]2CC[C@@H](NC[C@@H](COCc3ccccc3)OCc3ccccc3)CC2)nc2ccccc12", "note": "[compound 1453]", "class": "3 (Class 3 The value of percent of control at 10^−7 M was more than 60% or the value of IC50 was more than 200 nM.)"}, {"molecule": "COc1cc2ccccc2cc1CN[C@H]1CC[C@@H](Nc2cc(N(C)C)c3ccccc3n2)CC1", "note": "[compound 1454]", "class": "3 (Class 3 The value of percent of control at 10^−7 M was more than 60% or the value of IC50 was more than 200 nM.)"}, {"molecule": "CN(C)c1cc(N[C@H]2CC[C@@H](NCCN(CCC#N)c3ccccc3)CC2)nc2ccccc12", "note": "[compound 1455]", "class": "2 (Class 2: The value of percent of control at 10^−7 M was from 40% to 60% or the value of IC′50 was from 50 nM to 200 nM.)"}, {"molecule": "Cc1ccc(S(=O)(=O)N[C@H](CN[C@H]2CC[C@@H](Nc3cc(N(C)C)c4ccccc4n3)CC2)Cc2ccccc2)cc1", "note": "[compound 1456]", "class": "3 (Class 3 The value of percent of control at 10^−7 M was more than 60% or the value of IC50 was more than 200 nM.)"}, {"molecule": "CN(C)c1cc(NC2CCC(NCC3CCCCC3C(O)c3ccccc3)CC2)nc2ccccc12", "note": "(stereo not shown) [compound 1457]", "class": "3 (Class 3 The value of percent of control at 10^−7 M was more than 60% or the value of IC50 was more than 200 nM.)"}, {"molecule": "COc1cc(CCN[C@H]2CC[C@@H](Nc3cc(N(C)C)c4ccccc4n3)CC2)cc(OC)c1", "note": "[compound 1458]", "class": "3 (Class 3 The value of percent of control at 10^−7 M was more than 60% or the value of IC50 was more than 200 nM.)"}, {"molecule": "CN(C)c1cc(N[C@H]2CC[C@@H](NCCc3c(-c4ccccc4)[nH]c4ccccc34)CC2)nc2ccccc12", "note": "[compound 1459]", "class": "2 (Class 2: The value of percent of control at 10^−7 M was from 40% to 60% or the value of IC′50 was from 50 nM to 200 nM.)"}, {"molecule": "CN(C)c1cc(N[C@H]2CC[C@@H](NCC(c3ccc(Cl)cc3)c3ccc(Cl)cc3)CC2)nc2ccccc12", "note": "[compound 1460]", "class": "3 (Class 3 The value of percent of control at 10^−7 M was more than 60% or the value of IC50 was more than 200 nM.)"}, {"molecule": "C[C@H](CN[C@H]1CC[C@@H](Nc2cc(N(C)C)c3ccccc3n2)CC1)c1cccc(C(O)c2ccccc2)c1", "note": "(stereo partly shown) [compound 1461]", "class": "3 (Class 3 The value of percent of control at 10^−7 M was more than 60% or the value of IC50 was more than 200 nM.)"}, {"molecule": "CN(C)c1cc(N[C@H]2CC[C@@H](NCC3CN(C(c4ccccc4)c4ccccc4)C3)CC2)nc2ccccc12", "note": "[compound 1462]", "class": "1 (Class 1: The value of percent of control at 10^−7 M was less than 40% or the value of IC50 was less than 50 nM.)"}, {"molecule": "CN(C)c1cc(N[C@H]2CC[C@@H](CNCCc3ccc(Br)cc3)CC2)nc2ccccc12", "note": "[compound 1463]", "class": "3 (Class 3 The value of percent of control at 10^−7 M was more than 60% or the value of IC50 was more than 200 nM.)"}, {"molecule": "COc1ccc(CCCCNC[C@H]2CC[C@@H](Nc3cc(N(C)C)c4ccccc4n3)CC2)cc1", "note": "[compound 1464]", "class": "3 (Class 3 The value of percent of control at 10^−7 M was more than 60% or the value of IC50 was more than 200 nM.)"}, {"molecule": "CN(C)c1cc(N[C@H]2CC[C@@H](CNCCCCCCc3ccccc3)CC2)nc2ccccc12", "note": "[compound 1465]", "class": "3 (Class 3 The value of percent of control at 10^−7 M was more than 60% or the value of IC50 was more than 200 nM.)"}, {"molecule": "Cc1cc(C)c(CCNC[C@H]2CC[C@@H](Nc3cc(N(C)C)c4ccccc4n3)CC2)c(C)c1", "note": "[compound 1466]", "class": "3 (Class 3 The value of percent of control at 10^−7 M was more than 60% or the value of IC50 was more than 200 nM.)"}, {"molecule": "CN(C)c1cc(N[C@H]2CC[C@@H](CNCCCCCCCCc3ccccc3)CC2)nc2ccccc12", "note": "[compound 1467]", "class": "3 (Class 3 The value of percent of control at 10^−7 M was more than 60% or the value of IC50 was more than 200 nM.)"}, {"molecule": "CN(C)c1cc(N[C@H]2CC[C@@H](CNCCc3ccc(C(C)(C)C)cc3)CC2)nc2ccccc12", "note": "[compound 1468]", "class": "3 (Class 3 The value of percent of control at 10^−7 M was more than 60% or the value of IC50 was more than 200 nM.)"}, {"molecule": "CN(C)c1cc(N[C@H]2CC[C@@H](CNCCCC#Cc3ccccc3)CC2)nc2ccccc12", "note": "[compound 1469]", "class": "3 (Class 3 The value of percent of control at 10^−7 M was more than 60% or the value of IC50 was more than 200 nM.)"}, {"molecule": "COc1ccccc1CCNC[C@H]1CC[C@@H](Nc2cc(N(C)C)c3ccccc3n2)CC1", "note": "[compound 1470]", "class": "3 (Class 3 The value of percent of control at 10^−7 M was more than 60% or the value of IC50 was more than 200 nM.)"}, {"molecule": "CN(C)c1cc(N[C@H]2CC[C@@H](CNCCCOc3ccccc3)CC2)nc2ccccc12", "note": "[compound 1471]", "class": "3 (Class 3 The value of percent of control at 10^−7 M was more than 60% or the value of IC50 was more than 200 nM.)"}, {"molecule": "CN(C)c1cc(N[C@H]2CC[C@@H](CNCc3c(F)c(F)cc(F)c3F)CC2)nc2ccccc12", "note": "[compound 1472]", "class": "3 (Class 3 The value of percent of control at 10^−7 M was more than 60% or the value of IC50 was more than 200 nM.)"}, {"molecule": "CN(C)c1cc(N[C@H]2CC[C@@H](CNCc3cc(Cl)ccc3Cl)CC2)nc2ccccc12", "note": "[compound 1473]", "class": "3 (Class 3 The value of percent of control at 10^−7 M was more than 60% or the value of IC50 was more than 200 nM.)"}, {"molecule": "COc1ccc(Cl)cc1CNC[C@H]1CC[C@@H](Nc2cc(N(C)C)c3ccccc3n2)CC1", "note": "[compound 1474]", "class": "3 (Class 3 The value of percent of control at 10^−7 M was more than 60% or the value of IC50 was more than 200 nM.)"}]}]}
